Data from patent US6444662B1 (Willmar Schwabe GmbH & Co., priority 1998, dated 2002).

How the values were obtained:
[1] = Stability of hyperforin salts on storage at room temperature (content by HPLC); assay type: physicochemical; conditions: for Change in the hyperforin content, difference after 1 week / Change in the hyperforin content, difference after 4 weeks / Change in the hyperforin content, difference after 12 weeks: room temperature, brown-glass bottles, without protective gas; for Change in the hyperforin content, difference after 1 week / Change in the hyperforin content, difference after 4 weeks / Change in the hyperforin content, difference after 12 weeks / Initial value, hyperforin content (% of the stoichiometric content): HPLC; for Initial value, hyperforin content (% of the stoichiometric content): hyperforin (examples 1 to 20) or hyperforin+adhyperforin (examples 21 to 31)
Method: General: Melting points were measured with Elektrothermal® or B-545 (Büchi) apparatus; IR spectra were recorded with an IFS 28 (Bruker) IR-spectrometer on KBr blanks, NMR spectra with an AC 200 or Avance 200 (Bruker) in D4-methanol (200 MHz for ^1H and 50 MHz for ^13C; δ-values in ppm). HPLC determinations were performed using a Dynamax PDA-1 from Rainin, Voburn, Mass., USA. HPLC conditions (isocratic): adsorbant: Eurospher 100-C18, 10 μm. Eluant: Acetonitrile/water/phosphoric acid=85/15/0.3 (vol./vol.). Detection: 273 nm. […] Assay: Content stated in area-% with reference to the reference standard. […] Operating conditions: under red light or in darkened apparatus under protective gas (nitrogen or argon). […] They are calculated as hydrates. Abbreviations: MTBE=Methyl tert.-butyl ether. “98H/I”=n-heptane/isopropanol 98/2 (vol/vol). Mp.=melting point. anh.=anhydrous. Th=theoretical. sv=very strong.
1 This salt is used as the reference standard.

recombinant PKC-γ = recombinant PKC-γ (Homo sapiens, UniProt P05129); test: Activation of protein kinase PKC-γ (enzyme test); assay type: biochemical; conditions: control with 100 nM TPA set to 100%
Method: PKCγ activators are potentially suitable for activating cc-secretase. These activators are found in enzyme tests in which the recombinantly produced PKC-γ is suboptimally active. The test media were:
In the table, the control with 100 nM phorbol-12-myristate-13-acetate (TPA; stimulator of PKC-γ) was set to 100%.

α-secretase = test: Activation of α-secretase in secα1-transfected cells (Seap release); assay type: cell-based, human; conditions: 60 min incubation, mean of triplicates
Description: As the APP cassette in both constructs begins with amino-acid 7 of the β-amyloid sequence, the recognition sequence for β-secretase in the sec-fusion proteins is absent. Cleavage by γ-secretase has not been described for human APLP-2, with the result that the specificity of the fusion proteins for α-secretase only is achieved by substitution of the trans-membrane domain of APLP-2 for APP. The expression plasmid secα1 was stably transfected into human neuronal cells SY5Y. Activation of α-secretase in these secα1-transfected cells is manifested in an increased release of Seap into the cell medium. The quantity of Seap is determined, and serves as a measure of the α-secretase activity.
Test conditions: 80 000 FL-2a cells/well. V=100 μl. Incubation time: 60 min.
Concentration of the substances: 10 μg/ml.
Mean values±s.d. of triplicates.
The activation of α-secretase by the phorbol ester TPA (100 ng/ml) was measured as the positive control.

CC(C)=CCC[C@]1(C)C(CC=C(C)C)C[C@@]2(CC=C(C)C)C(=O)[C@]1(C(=O)C(C)C)C(=O)C(CC=C(C)C)=C2O.COc1cc(CN)cc(OC)c1OC (some centres unmarked) [Example 3, 3,4,5-Trimethoxybenzylamine Salt of Hyperforin]
Change in the hyperforin content, difference after 1 week [1]: +1.1%
Change in the hyperforin content, difference after 4 weeks [1]: −1.1%
Change in the hyperforin content, difference after 12 weeks [1]: −5.0%
Initial value, hyperforin content (% of the stoichiometric content) ([1]; storage time 0): 87.2%

CC(C)=CCC[C@]1(C)[C@@H](CC=C(C)C)C[C@@]2(CC=C(C)C)C(=O)[C@]1(C(=O)C(C)C)C(=O)C(CC=C(C)C)=C2O.[Na] [Example 1, Hyperforin Sodium Salt]
Increase in the activity of PKC-γ (recombinant PKC-γ; substance dose 1 μg/ml): 9%
Increase in the activity of PKC-γ (recombinant PKC-γ; substance dose 3 μg/ml): 30%
Increase in the activity of PKC-γ (recombinant PKC-γ; substance dose 10 μg/ml): 56%

CC(C)=CCC[C@]1(C)[C@@H](CC=C(C)C)C[C@@]2(CC=C(C)C)C(=O)[C@]1(C(=O)C(C)C)C(=O)C(CC=C(C)C)=C2O [Hyperforin, hyperforin, reference compound]
Activity of α-secretase (secreted alkaline phosphatase, Seap) (α-secretase; 10 μg/ml, 80 000 cells/well): 441 RLU
Increase in the activity of PKC-γ (recombinant PKC-γ; substance dose 1 μg/ml): 6%
Increase in the activity of PKC-γ (recombinant PKC-γ; substance dose 3 μg/ml): 51%
Increase in the activity of PKC-γ (recombinant PKC-γ; substance dose 10 μg/ml): 45%

CC(C)=CCC[C@]1(C)C(CC=C(C)C)C[C@@]2(CC=C(C)C)C(=O)[C@]1(C(=O)C(C)C)C(=O)C(CC=C(C)C)=C2O.Nc1ccncc1 (some centres unmarked) [Example 16]
Change in the hyperforin content, difference after 1 week [1]: +1.4%
Change in the hyperforin content, difference after 4 weeks [1]: +0.1%
Initial value, hyperforin content (% of the stoichiometric content) ([1]; storage time 0): 94.6%

CC(C)=CCCC1(C)C(CC=C(C)C)CC2(CC=C(C)C)C(=O)C1(C(=O)C(C)C)C(=O)C(CC=C(C)C)=C2O.NCCCNC1CCCCC1 (centres unmarked) [Example 15]
Change in the hyperforin content, difference after 1 week [1]: −2.0%
Change in the hyperforin content, difference after 4 weeks [1]: −2.0%
Change in the hyperforin content, difference after 12 weeks [1]: −9.9%
Initial value, hyperforin content (% of the stoichiometric content) ([1]; storage time 0): 90.8%

CCCCCCCCCCCCCC(=O)O[C@@H]1[C@@H](C)[C@@]2(O)[C@@H](C=C(CO)C[C@]3(O)C(=O)C(C)=C[C@@H]23)[C@@H]2C(C)(C)[C@]12OC(C)=O [TPA, phorbol-12-myristate-13-acetate]
Activity of α-secretase (secreted alkaline phosphatase, Seap) (α-secretase; positive control, 100 ng/ml): 386 RLU

C1CCC(NC2CCCCC2)CC1.CC(C)=CCC[C@]1(C)C(CC=C(C)C)C[C@@]2(CC=C(C)C)C(=O)[C@]1(C(=O)C(C)C)C(=O)C(CC=C(C)C)=C2O (some centres unmarked) [Example 2, N,N-Dicyclohexylamine Salt of Hyperforin]
Initial value, hyperforin content (titr.) ([1]; storage time 0, perchloric-acid titration): 100%

C1CCNC1.CC(C)=CCC[C@]1(C)C(CC=C(C)C)C[C@@]2(CC=C(C)C)C(=O)[C@]1(C(=O)C(C)C)C(=O)C(CC=C(C)C)=C2O (some centres unmarked) [Example 5, Pyrrolidine Salt of Hyperforin]
Change in the hyperforin content, difference after 1 week [1]: −0.5%
Change in the hyperforin content, difference after 12 weeks [1]: −3.2%
Initial value, hyperforin content (% of the stoichiometric content) ([1]; storage time 0): 93.7%
Increase in the activity of PKC-γ (recombinant PKC-γ; substance dose 1 μg/ml): 3%
Increase in the activity of PKC-γ (recombinant PKC-γ; substance dose 3 μg/ml): 20%
Increase in the activity of PKC-γ (recombinant PKC-γ; substance dose 10 μg/ml): 48%
